The source of these data is US20250296971A1, “GASTRIC INHIBITORY PEPTIDE RECEPTOR LIGANDS” (priority 2021, published 2025).

Like-named read-outs stand apart in the source and are kept apart here. *1 amine or outer side, *2 acyl side, *3 side chain or, on linkers, in order; H or OH if unused. Where a SMILES comes first, the peptide text is derived from it. Bridges are numbered along the chain shown (N, C = ends). [ ]: non-standard residue; d: D form. Trp(5-Cl) = N[C@@H](Cc1c[nH]c2ccc(Cl)cc12)C(=O)O; Pyridine(2,6-diCH2) = c1cc(C[*:1])nc(C[*:2])c1; Oic = O=C(O)[C@@H]1C[C@@H]2CCCC[C@@H]2N1; Pro(4R-NH2) = N[C@H]1CN[C@H](C(=O)O)C1; 1Nal = N[C@@H](Cc1cccc2ccccc12)C(=O)O; mXylylene = c1cc(C[*:1])cc(C[*:2])c1; X7 = c1cc(CSCCN[*:2])cc(C[*:1])c1; Suc = O=C(CCC(=O)[*:2])[*:1]; Pip = O=C(O)[C@@H]1CCCCN1; Thp = NC1(C(=O)O)CCOCC1; Aib = CC(C)(N)C(=O)O

The target of the assay is T1, GIPR (CHO-K1-hGIPR cells) (Homo sapiens, UniProt P48546).
T1 construct: host or cells: CHO-K1
T1 sequence (P48546 22-466): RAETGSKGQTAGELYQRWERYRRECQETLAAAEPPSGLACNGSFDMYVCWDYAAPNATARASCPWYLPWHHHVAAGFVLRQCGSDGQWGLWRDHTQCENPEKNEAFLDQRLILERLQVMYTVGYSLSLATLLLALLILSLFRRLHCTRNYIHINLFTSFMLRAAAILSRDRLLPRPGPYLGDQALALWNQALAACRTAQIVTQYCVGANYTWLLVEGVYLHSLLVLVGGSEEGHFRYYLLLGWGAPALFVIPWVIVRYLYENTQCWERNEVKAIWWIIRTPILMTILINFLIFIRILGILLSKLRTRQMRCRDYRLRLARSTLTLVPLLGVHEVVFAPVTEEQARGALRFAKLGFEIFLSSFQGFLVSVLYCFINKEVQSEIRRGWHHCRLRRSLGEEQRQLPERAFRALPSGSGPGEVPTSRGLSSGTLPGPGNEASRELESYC
Put plainly: FACS binding assay. Conditions: read-out: pIC50 Category (converted). In a few lines: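 Peptide binding read by flow cytometry as APC-channel median fluorescence, fitted with a four-parameter logistic to yield EC50 or IC50. Cells were hGIPR-transfected CHO-K1 in PBS with 1% FCS, detected with 1 μg/mL APC-streptavidin, 30 min on ice.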
In general terms: Flow cytometry measures light scatter and fluorescence of single cells or particles in a stream.

Setting [1] is: competition with 20 nM GIP-057, 4° C., 1 hour.
Setting [2] is: competition with 20 nM GIP-057, 4° C. for 1 hour.

`CC[C@H](C)[C@@H]1NC(=O)[C@H](CC(C)C)NC(=O)C2(CCOCC2)NC(=O)[C@@H](NC(=O)[C@@H](CC(C)C)NC(=O)[C@H](CCC(=O)O)NC(=O)[C@@H]2C[C@@H](N)CN2C(=O)[C@H](Cc2c[nH]c3ccc(Cl)cc23)NC(=O)[C@H](Cc2c[nH]c3ccccc23)NC(=O)[C@H](CC(=O)O)NC(C)=O)CSCc2cccc(n2)CSC[C@@H](C(N)=O)NC1=O` [GIP-239, Ac-Asp-Trp-5Clw-Tap-Glu-leu-[Cys(2Lut)-Thp-Leu-Ile-Cys]-NH2] (Ac-DW[Trp(5-Cl)][Pro(4R-NH2)]E[dL]C[Thp]LIC-NH2; linker 7-11 via Pyridine(2,6-diCH2)): the IC50 under setting [1] is less than 10 nM.

Consider `CC[C@H](C)[C@@H]1NC(=O)[C@H](CC(C)C)NC(=O)[C@H](CCCCN)NC(=O)[C@@H](NC(=O)[C@H](CC(C)C)NC(=O)[C@H](CCC(=O)O)NC(=O)[C@@H]2CCCN2C(=O)[C@H](Cc2c[nH]c3ccccc23)NC(=O)[C@H](Cc2c[nH]c3ccccc23)NC(=O)[C@H](CC(=O)O)NC(=O)[C@H](Cc2ccc(O)cc2)NC(=O)[C@@H](N)CCSC)CSCc2cccc(c2)CSC[C@@H](C(N)=O)NC1=O` [GIP-243] (H-MYDWWPELCKLIC-NH2; linker 9-13 via mXylylene), for which the IC50 under setting [1] is 10 to 79.4 nM.

For `CC[C@H](C)[C@@H]1NC(=O)[C@H](CC(C)C)NC(=O)[C@H](C)NC(=O)[C@@H](NC(=O)[C@H](CC(C)C)NC(=O)[C@H](CCC(=O)O)NC(=O)[C@@H]2CCCN2C(=O)[C@H](Cc2c[nH]c3ccccc23)NC(=O)[C@H](Cc2c[nH]c3ccccc23)NC(=O)[C@H](CC(=O)O)NC(=O)[C@H](C)NC(=O)[C@@H](N)CCSC)CSCc2cccc(c2)CSC[C@@H](C(N)=O)NC1=O` [GIP-249] (H-MADWWPELCALIC-NH2; linker 9-13 via mXylylene), the IC50 under setting [2] was 10 to 79.4 nM.

With `CC[C@H](C)[C@@H]1NC(=O)[C@H](CC(C)C)NC(=O)[C@@H](C)NC(=O)[C@@H](NC(=O)[C@H](CC(C)C)NC(=O)[C@H](CCC(=O)O)NC(=O)[C@@H]2CCCN2C(=O)[C@H](Cc2c[nH]c3ccccc23)NC(=O)[C@H](Cc2c[nH]c3ccccc23)NC(=O)[C@H](CC(=O)O)NC(C)=O)CSCc2cccc(c2)CSCCNC1=O` [GIP-250, Ac-Asp-Trp-Trp-Pro-Glu-Leu-[Cys(3MeBn)-ala-Leu-Ile-AET]] (Ac-DWWPELC[dA]LI; linker 7-C via X7), the IC50 under setting [2] is 10 to 79.4 nM.

Regarding `CC[C@H](C)[C@@H]1NC(=O)[C@H](CC(C)C)NC(=O)C(C)(C)NC(=O)[C@@H](NC(=O)[C@H](CC(C)C)NC(=O)[C@H](CCC(=O)O)NC(=O)[C@@H]2CCCN2C(=O)[C@H](Cc2c[nH]c3ccccc23)NC(=O)[C@H](Cc2c[nH]c3ccccc23)NC(=O)[C@H](CC(=O)O)NC(C)=O)CSCc2cccc(c2)CSCCNC1=O` [GIP-251, Ac-Asp-Trp-Tip-Pro-Glu-Leu-[Cys(3MeBn)-Aib-Leu-Ile-AET]] (Ac-DWWPELC[Aib]LI; linker 7-C via X7), under setting [2], the IC50 is 10 to 79.4 nM.

Regarding `CC[C@H](C)[C@@H]1NC(=O)[C@H](CC(C)C)NC(=O)C(C)(C)NC(=O)[C@@H](NC(=O)[C@H](CC(C)C)NC(=O)[C@H](CCC(=O)O)NC(=O)[C@@H]2C[C@@H]3CCCC[C@@H]3N2C(=O)[C@H](Cc2cccc3ccccc23)NC(=O)[C@H](Cc2c[nH]c3ccccc23)NC(=O)[C@H](CC(=O)O)NC(C)=O)CSCc2cccc(c2)CSC[C@@H](C(N)=O)NC1=O` [GIP-252, Ac-Asp-Trp-1Ni-Pip-Glu-Leu-[Cys(3MeBn)-Aib-Leu-Ile-Cys]-NH2] (Ac-DW[1Nal][Oic]ELC[Aib]LIC-NH2; linker 7-11 via mXylylene), under setting [2], the IC50 is 10 to 79.4 nM.

For `CC[C@H](C)[C@@H]1NC(=O)[C@H](CC(C)C)NC(=O)C(C)(C)NC(=O)[C@@H](NC(=O)[C@H](CC(C)C)NC(=O)[C@H](CCC(=O)O)NC(=O)[C@@H]2CCCCN2C(=O)[C@H](Cc2cccc3ccccc23)NC(=O)[C@H](Cc2c[nH]c3ccccc23)NC(=O)[C@H](CC(=O)O)NC(C)=O)CSCc2cccc(c2)CSC[C@@H](C(N)=O)NC1=O` [GIP-253, Ac-Asp-Trp-1Ni-Pip-Glu-Leu-[Cys(3MeBn)-Aib-Leu-Ile-Cys]-NH2] (Ac-DW[1Nal][Pip]ELC[Aib]LIC-NH2; linker 7-11 via mXylylene), under setting [2], the IC50 was 10 to 79.4 nM.

As to `CC[C@H](C)[C@@H]1NC(=O)[C@H](CC(C)C)NC(=O)[C@H](C)NC(=O)[C@@H](NC(=O)[C@H](CC(C)C)NC(=O)[C@H](CCC(=O)O)NC(=O)[C@@H]2CCCN2C(=O)[C@H](Cc2c[nH]c3ccccc23)NC(=O)[C@H](Cc2c[nH]c3ccccc23)NC(=O)[C@H](CC(=O)O)NC(=O)[C@H](Cc2ccc(O)cc2)NC(=O)[C@@H](N)CCSC)CSCc2cccc(c2)CSC[C@@H](C(N)=O)NC1=O` [GIP-254] (H-MYDWWPELCALIC-NH2; linker 9-13 via mXylylene), the IC50 under setting [2] is 10 to 79.4 nM.

On to `CC[C@H](C)[C@@H]1NC(=O)[C@H](CC(C)C)NC(=O)[C@H](C)NC(=O)[C@@H](NC(=O)[C@H](CC(C)C)NC(=O)[C@H](CCC(=O)O)NC(=O)[C@@H]2CCCN2C(=O)[C@H](Cc2c[nH]c3ccccc23)NC(=O)[C@H](Cc2c[nH]c3ccccc23)NC(=O)CCC(=O)O)CSCc2cccc(c2)CSC[C@@H](C(N)=O)NC1=O` [GIP-255, HO-Succinyl-Trp-Trp-Pro-Glu-Leu-[Cys(3MeBn)-Ala-Leu-Ile-Cys]-NH2] (Suc-WWPELCALIC-NH2; linker 6-10 via mXylylene), for which the IC50 under setting [2] was 10 to 79.4 nM.

On to `CC[C@H](C)[C@@H]1NC(=O)[C@H](CC(C)C)NC(=O)[C@H](C)NC(=O)[C@@H](NC(=O)[C@H](CC(C)C)NC(=O)[C@H](CCC(=O)O)NC(=O)[C@@H]2CCCN2C(=O)[C@H](Cc2c[nH]c3ccccc23)NC(=O)[C@H](Cc2c[nH]c3ccccc23)NC(=O)CCC(=O)O)CSCc2cccc(c2)CSCCNC1=O` [GIP-256, HO-Succinyl-Trp-Trp-Pro-Glu-Leu-[Cys(3MeBn)-Ala-Leu-Ile-AET]] (Suc-WWPELCALI; linker 6-C via X7), for which the IC50 under setting [2] was 10 to 79.4 nM.

Turning to `CC[C@H](C)[C@@H]1NC(=O)[C@H](CC(C)C)NC(=O)[C@H](C)NC(=O)[C@@H](NC(=O)[C@H](CC(C)C)NC(=O)[C@H](CCC(=O)O)NC(=O)[C@@H]2CCCN2C(=O)[C@H](Cc2c[nH]c3ccccc23)NC(=O)[C@H](Cc2c[nH]c3ccccc23)NC(=O)CCC(=O)O)CSCc2cccc(n2)CSC[C@@H](C(N)=O)NC1=O` [GIP-257, HO-Succinyl-Trp-Trp-Pro-Glu-Leu-[Cys(2Lut)-Ala-Leu-Ile-Cys]-NH2] (Suc-WWPELCALIC-NH2; linker 6-10 via Pyridine(2,6-diCH2)), the IC50 under setting [2] was 10 to 79.4 nM.

On to `CC[C@H](C)[C@@H]1NC(=O)[C@H](CC(C)C)NC(=O)C(C)(C)NC(=O)[C@@H](NC(=O)[C@@H](CC(C)C)NC(=O)[C@H](CCC(=O)O)NC(=O)[C@@H]2CCCN2C(=O)[C@H](Cc2c[nH]c3ccccc23)NC(=O)[C@H](Cc2c[nH]c3ccccc23)NC(=O)CCC(=O)O)CSCc2cccc(c2)CSC[C@@H](C(N)=O)NC1=O` [GIP-258, HO-Succinyl-Trp-Trp-Pro-Glu-leu-[Cys(3MeBn)-Aib-Leu-Ile-Cys]-NH2] (Suc-WWPE[dL]C[Aib]LIC-NH2; linker 6-10 via mXylylene), for which the IC50 under setting [2] is 10 to 79.4 nM.

For `CC[C@H](C)[C@@H]1NC(=O)[C@H](CC(C)C)NC(=O)C(C)(C)NC(=O)[C@@H](NC(=O)[C@H](CC(C)C)NC(=O)[C@H](CCC(=O)O)NC(=O)[C@@H]2CCCN2C(=O)[C@H](Cc2c[nH]c3ccccc23)NC(=O)[C@H](Cc2c[nH]c3ccccc23)NC(=O)CCC(=O)O)CSCc2cccc(c2)CSC[C@@H](C(N)=O)NC1=O` [GIP-259, HO-Succinyl-Trp-Trp-Pro-Glu-Leu-[Cys(3MeBn)-Aib-Leu-Ile-Cys]-NH2] (Suc-WWPELC[Aib]LIC-NH2; linker 6-10 via mXylylene), the IC50 under setting [2] was 10 to 79.4 nM.
